Data from the supplement of paper PMC6045584.
± gives the standard deviation of the averaged measurements.

Legend:
AFIMOXIFENE = compound: CC/C(=C(\c1ccc(O)cc1)c1ccc(OCCN(C)C)cc1)c1ccccc1 [AFIMOXIFENE]; assay: surviving fraction relative to DMSO-only wells; higher = less growth inhibition; conditions: exposure time: 5 days
Procedure, shortened: (§1)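 Surviving fraction is CellTiter-Glo luminescence divided by the median of wells given DMSO only. For this, log-phase tumour cell lines went into 384-well plates at 250–500 cells per well and, 24 hours later, into five days of continuous inhibitor exposure at 0.5, 1, 5, 10, 50, 100, 500 and 1000 nM. Lines were screened three times and retained only if replicate Pearson r >0.7 and median Z' >0.3.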

MK-1775 = compound: C=CCn1c(=O)c2cnc(Nc3ccc(N4CCN(C)CC4)cc3)nc2n1-c1cccc(C(C)(C)O)n1 [MK-1775]; assay: as above; conditions: exposure time: 5 days
Procedure, shortened: as §1

| Test System | surviving fraction (AFIMOXIFENE; 0.5 nM) | surviving fraction (AFIMOXIFENE; 1 nM) | surviving fraction (AFIMOXIFENE; 5 nM) | surviving fraction (AFIMOXIFENE; 10 nM) | surviving fraction (AFIMOXIFENE; 50 nM) | surviving fraction (AFIMOXIFENE; 100 nM) | surviving fraction (AFIMOXIFENE; 500 nM) | surviving fraction (AFIMOXIFENE; 1000 nM) | surviving fraction (MK-1775; 0.5 nM) | surviving fraction (MK-1775; 1 nM) | surviving fraction (MK-1775; 5 nM) | surviving fraction (MK-1775; 10 nM) | surviving fraction (MK-1775; 50 nM) | surviving fraction (MK-1775; 100 nM) | surviving fraction (MK-1775; 500 nM) | surviving fraction (MK-1775; 1000 nM) |
| --- | --- | --- | --- | --- | --- | --- | --- | --- | --- | --- | --- | --- | --- | --- | --- | --- |
| NY BONE | 1.03 ± 0.041 | 1.026 ± 0.0089 | 1.1 ± 0.023 | 1.08 ± 0.027 | 1.11 ± 0.055 | 1.082 ± 0.006 | 0.972 ± 0.0056 | 0.9223 ± 0.0081 | 1.04 ± 0.056 | 1.01 ± 0.014 | 1.1 ± 0.017 | 1.03 ± 0.013 | 0.638 ± 0.04 | 0.254 ± 0.016 | 0.113 ± 0.0076 | 0.0633 ± 0.0021 |
| T47D BREAST | 1.06 ± 0.052 | 1.11 ± 0.032 | 0.955 ± 0.0067 | 0.98 ± 0.048 | 0.95 ± 0.032 | 0.958 ± 0.034 | 0.888 ± 0.024 | 0.883 ± 0.037 | 1.07 ± 0.021 | 1.05 ± 0.014 | 1.1 ± 0.044 | 1.01 ± 0.015 | 1.06 ± 0.065 | 0.979 ± 0.025 | 0.453 ± 0.025 | 0.38 ± 0.024 |
| SG28 HEADNECK | 1.208 ± 0.0021 | 1.04 ± 0.057 | 1.1 ± 0.15 | 0.965 ± 0.1 | 1.14 ± 0.1 | 0.985 ± 0.04 | 1.12 ± 0.04 | 1.05 ± 0.088 | 0.987 ± 0.18 | 1.11 ± 0.066 | 1.14 ± 0.12 | 1.04 ± 0.046 | 0.698 ± 0.0084 | 0.549 ± 0.032 | 0.441 ± 0.034 | 0.558 ± 0.11 |
| SUM159 BREAST | 1.12 ± 0.024 | 1.12 ± 0.028 | 1.12 ± 0.026 | 1.11 ± 0.013 | 1.09 ± 0.025 | 1.13 ± 0.023 | 1.114 ± 0.01 | 1.06 ± 0.016 | 1.06 ± 0.023 | 1.03 ± 0.021 | 1.04 ± 0.028 | 1.02 ± 0.022 | 1.01 ± 0.069 | 1.02 ± 0.057 | 0.69 ± 0.17 | 0.377 ± 0.16 |
| MDAMB134 BREAST | 1.32 ± 0.15 | 1.06 ± 0.073 | 1.05 ± 0.011 | 0.975 ± 0.088 | 1.16 ± 0.074 | 0.932 ± 0.037 | 0.887 ± 0.095 | 0.908 ± 0.089 | 1.11 ± 0.1 | 1.02 ± 0.086 | 1.17 ± 0.039 | 1.075 ± 0.0064 | 1.08 ± 0.064 | 0.994 ± 0.047 | 0.752 ± 0.035 | 0.733 ± 0.0099 |
| SG27 HEADNECK | 1.09 ± 0.16 | 1.06 ± 0.14 | 1.05 ± 0.023 | 1.02 ± 0.059 | 1.16 ± 0.063 | 1 ± 0.23 | 1.21 ± 0.11 | 1.1 ± 0.078 | 1.04 ± 0.046 | 1.04 ± 0.11 | 1.08 ± 0.068 | 1.03 ± 0.11 | 0.969 ± 0.12 | 1.01 ± 0.14 | 0.853 ± 0.1 | 0.896 ± 0.061 |
| 93VU HEADNECK | 1.25 ± 0.11 | 1.2 ± 0.11 | 1.34 ± 0.074 | 1.32 ± 0.075 | 1.27 ± 0.053 | 1.2 ± 0.1 | 1.24 ± 0.12 | 1.08 ± 0.068 | 1.05 ± 0.098 | 0.996 ± 0.034 | 1.13 ± 0.1 | 1.01 ± 0.033 | 0.649 ± 0.063 | 0.416 ± 0.038 | 0.22 ± 0.021 | 0.165 ± 0.029 |
| HCC1954 BREAST | 1.01 ± 0.15 | 1 ± 0.0018 | 1.31 ± 0.18 | 1.33 ± 0.1 | 0.9337 ± 0.0067 | 1.02 ± 0.056 | 0.973 ± 0.1 | 0.883 ± 0.12 | 0.762 ± 0.1 | 0.775 ± 0.012 | 1.08 ± 0.13 | 0.8722 ± 0.0025 | 0.719 ± 0.017 | 0.625 ± 0.0078 | 0.203 ± 0.013 | 0.102 ± 0.0042 |
| S68 BREAST | 0.947 ± 0.19 | 0.829 ± 0.24 | 1.08 ± 0.052 | 0.952 ± 0.18 | 1.39 ± 0.13 | 1.21 ± 0.11 | 0.916 ± 0.047 | 0.805 ± 0.065 | 1.17 ± 0.41 | 1.18 ± 0.27 | 1.03 ± 0.11 | 0.848 ± 0.13 | 0.663 ± 0.093 | 0.329 ± 0.048 | 0.101 ± 0.008 | 0.0703 ± 0.011 |
| PCI30 HEADNECK | 1.09 ± 0.017 | 1.07 ± 0.062 | 1.07 ± 0.06 | 1.06 ± 0.023 | 1.12 ± 0.045 | 1.05 ± 0.022 | 0.99 ± 0.091 | 1.02 ± 0.032 | 0.926 ± 0.1 | 0.937 ± 0.054 | 1.03 ± 0.036 | 1.05 ± 0.16 | 0.884 ± 0.069 | 0.745 ± 0.021 | 0.195 ± 0.02 | 0.137 ± 0.0085 |
| MCF7 BREAST | 1.02 ± 0.045 | 0.976 ± 0.045 | 0.917 ± 0.036 | 0.928 ± 0.045 | 0.877 ± 0.035 | 0.857 ± 0.037 | 0.834 ± 0.046 | 0.775 ± 0.012 | 0.886 ± 0.021 | 0.894 ± 0.013 | 0.864 ± 0.0098 | 0.873 ± 0.042 | 0.869 ± 0.052 | 0.856 ± 0.028 | 0.736 ± 0.014 | 0.602 ± 0.035 |
| HOSMNG BONE | 0.922 ± 0.073 | 0.948 ± 0.032 | 0.996 ± 0.083 | 0.963 ± 0.038 | 1.1 ± 0.017 | 1.06 ± 0.032 | 1.07 ± 0.077 | 1.03 ± 0.078 | 1.04 ± 0.027 | 0.978 ± 0.061 | 0.935 ± 0.091 | 0.977 ± 0.11 | 1.01 ± 0.072 | 1.07 ± 0.063 | 0.143 ± 0.013 | 0.059 ± 0.0076 |
| SJSA1 BONE | 1.6 ± 0.021 | 1.74 ± 0.059 | 1.65 ± 0.083 | 1.74 ± 0.087 | 1.78 ± 0.027 | 1.52 ± 0.05 | 1.79 ± 0.059 | 1.27 ± 0.068 | 1 ± 0.011 | 1.0057 ± 0.00058 | 1.03 ± 0.026 | 1.04 ± 0.034 | 1.02 ± 0.033 | 0.938 ± 0.049 | 0.384 ± 0.011 | 0.317 ± 0.02 |
| HCT15 LARGE INTESTINE | 1.08 ± 0.077 | 1.05 ± 0.055 | 1.07 ± 0.085 | 1.06 ± 0.097 | 1.04 ± 0.054 | 1.07 ± 0.025 | 1.07 ± 0.054 | 1.09 ± 0.056 | 1.033 ± 0.0098 | 1.02 ± 0.032 | 1 ± 0.037 | 1.02 ± 0.035 | 1.05 ± 0.037 | 1 ± 0.05 | 0.521 ± 0.087 | 0.121 ± 0.0021 |
| SG32 HEADNECK | 1.09 ± 0.33 | 1.93 ± 1.3 | 1.26 ± 0.11 | 1.18 ± 0.25 | 1.09 ± 0.093 | 0.982 ± 0.053 | 1.12 ± 0.087 | 1.21 ± 0.2 | 1.25 ± 0.072 | 1.43 ± 0.26 | 1.13 ± 0.19 | 1.14 ± 0.2 | 0.852 ± 0.074 | 0.476 ± 0.037 | 0.22 ± 0.038 | 0.19 ± 0.0027 |
| CADOES1 SOFT TISSUE | 1.04 ± 0.054 | 0.998 ± 0.092 | 0.842 ± 0.12 | 0.986 ± 0.066 | 1.07 ± 0.064 | 0.978 ± 0.067 | 1.14 ± 0.042 | 0.967 ± 0.087 | 0.978 ± 0.014 | 0.929 ± 0.11 | 0.95 ± 0.036 | 0.887 ± 0.049 | 0.92 ± 0.094 | 0.832 ± 0.065 | 0.444 ± 0.034 | 0.218 ± 0.017 |
| CME SYNOVIAL | 1.26 ± 0.1 | 1.31 ± 0.15 | 1.42 ± 0.13 | 1.46 ± 0.13 | 1.41 ± 0.13 | 1.43 ± 0.1 | 1.28 ± 0.085 | 1.4 ± 0.053 | 1.36 ± 0.27 | 1.31 ± 0.096 | 1.5 ± 0.11 | 1.24 ± 0.13 | 1.45 ± 0.094 | 1.4 ± 0.11 | 1.3 ± 0.18 | 0.385 ± 0.025 |
| HCC1806 BREAST | 1.04 ± 0.065 | 1.1 ± 0.077 | 1.16 ± 0.12 | 1.14 ± 0.048 | 1.15 ± 0.026 | 1.13 ± 0.072 | 0.965 ± 0.028 | 0.682 ± 0.064 | 1.05 ± 0.047 | 0.996 ± 0.076 | 1.13 ± 0.032 | 1.02 ± 0.14 | 0.631 ± 0.082 | 0.303 ± 0.036 | 0.049 ± 0.0061 | 0.0403 ± 0.0015 |
| MDAMB361 BREAST | 0.875 ± 0.038 | 0.832 ± 0.096 | 0.756 ± 0.061 | 0.815 ± 0.11 | 0.854 ± 0.081 | 0.856 ± 0.037 | 1.09 ± 0.078 | 0.782 ± 0.013 | 0.862 ± 0.075 | 0.805 ± 0.039 | 0.875 ± 0.053 | 0.79 ± 0.053 | 0.68 ± 0.066 | 0.549 ± 0.047 | 0.478 ± 0.014 | 0.459 ± 0.015 |
